{"source": "paper PMC8018653", "about": "“Gender-based differences in brain and plasma pharmacokinetics of letrozole in sprague-dawley rats: Application of physiologically-based pharmacokinetic modeling to gain quantitative insights” (PLoS ONE, 2021)", "origin": "cited, not measured here", "tested_on": "P-glycoprotein (P-gp)", "details": "cited from earlier work", "data": [{"smiles": "CC(C)(C#N)c1cc(Cn2cncn2)cc(C(C)(C)C#N)c1", "note": "[anastrozole]", "values": [{"measurement": "substrate for the efflux transporter P-glycoprotein (P-gp)", "value": "substrate"}]}]}
